# Laboratory results: patent US4745124A, “Orally effective anti-hypertensive agents” (priority 1983, dated 1988)
# Values joined by “and” are separate entries in the source; they are usually repeats but may differ in a detail not shown here. Equal entries are not always repeated.
# Key:
# [1] = molecular target: T1, angiotensin converting enzyme (human urinary ACE) (Homo sapiens, UniProt P12821); test: ACE activity assay, I50 (Example 216A); type: biochemical; details: human urinary ACE; Benzoyl-GlyHisLeu 1×10^-4 M; Hepes pH 8.0; 37° C; in vitro; read-out: I50
# T1 construct: ACE purified from human urine; from tissue; host or cells: human urine (ultrafiltration and Sephacryl S-200, first eluting peak; prepared as in Ryan et al., Tissue and Cell 10, 555 (1978))
# [2] = tested on: pressor effects of angiotensin I; test: oral effectiveness: blood pressure response to angiotensin I in anesthetized rats; type: in vivo, rat; details: for Blood pressure response to angiotensin I (% of control): oral 10 mg, Ex. 225; for Blood Pressure Response to 400 ng/kg of Angiotensin I: oral 17 μmol/kg, Ex. 228
# Outline: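 Fasted rats under pentobarbital anesthesia (50-60 mg/kg i.p.), ventilated, with carotid arterial pressure recorded; i.v. angiotensin I (80 ng, 160 ng or 400 ng/kg) or angiotensin II (80 ng) challenges repeated at timed intervals after oral gavage of compound (2-20 mg/kg, 10 mg, 17 or 23 μmol/kg) in aqueous NaHCO3.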
# [3] = resistance of thioester compounds to alkaline hydrolysis; type: physicochemical
# Source text: Therefore the observed inhibitory effects cannot be accounted for by postulating spontaneous hydrolysis of the thioester bond to regenerate the free sulfhydryl group.
# [4] = tested on: pressor effects of angiotensin II; test: oral: blood pressure response to angiotensin II in anesthetized rats; type: in vivo, rat; details: 12 or 20 mg/kg
# Description: Rats (210-290 g body weight) were fasted overnight and then anesthetized with intraperitoneal pentobarbital, 50-60 mg/kg. Tracheostomy was performed and the animals were ventilated mechanically. A cannula was inserted into a femoral vein for injection of angiotensin I or II, and a second cannula was inserted into a common carotid artery for direct measurement of arterial blood pressure. Heparin, 1,000 units, was injected via the femoral vein to prevent coagulation. Blood pressure was measured with a pressure transducer connected to a polygraph. The rats were injected with 80 ng of angiotensin I or angiotensin II in 20 μl of 0.9 g % NaCl; an amount of antiotensin I or II sufficient to raise mean arterial blood pressure by 27-40 mm Hg. After the responsiveness of a given rat to angiotensins I and II was established, compound (I), at 2 or 5 mg/kg (drug dissolved in 0.5 ml of H2 O plus 10 μl of 1N NaHCO3), was given via a stomach tube. At timed intervals, the effects of 80 ng of angiotensin I or angiotensin II on mean arterial blood pressure were tested.
# Rats were prepared as described in Example 222. Compound (II) [N-benzoyl-L-phenylalanylthiopropanoyl)-L-proline] was given orally, via a stomach tube, at a dose of 12 mg/kg or 20 mg/kg. Compound (II) was dissolved in 0.5 ml of H2 O plus 10 μl of 1N NaHCO3. […]
# [5] = tested on: pressor effects of angiotensin I; test: intravenous effectiveness: blood pressure response to angiotensin I in anesthetized rats; type: in vivo, rat; details: i.v. 2 μmol/kg, Ex. 229
# Description: (§1) Anesthetized rats were prepared as described in Example 228. After the responsiveness of a given rat to angiotensin I was established, the named compound at 2 μmol/kg, in a volume of 15 μl of 0.01N sodium bicarbonate, was injected via a femoral vein. At timed intervals, the effects of angiotensin I, 400 ng/kg, on mean arterial blood pressure were tested. Results are shown below:
# as §1, with “231.” for “228.”, “compound,” for “compound”
# Anesthetized rats were prepared as described in Example 239. The animals were administered the named compound via a femoral vein in 15 μl of 0.01N sodium bicarbonate, after the control response to 400 ng/kg of angiotensin I was measured. […] The time required for recovery of one half of the lost responsiveness to angiotensin I, following injection of the named compound, was designated t1/2. […] Results are shown for two dose levels:
# Anesthetized rats were prepared as described in Example 242. The named compound was administered intravenously via a femoral vein, at the stated dose, in 15 μl of 0.01N sodium bicarbonate. The response to intravenous administration was a rapid decrease in responsiveness to Angtiotensin I, 400 ng/kg, followed by a gradual recovery to the pretreatment level of responsiveness. The time required for recovery of one half the lost responsiveness to angiotensin I, following injection of the named compound, is designated t1/2. […] Results are shown for the three dose levels:
# The intravenous effectiveness of the named compound was examined by following the procedure described in Example 244 except that 1 μmole/kg of the drug was given intravenously. The results are shown below:
# The intravenous effectiveness of the named compound was examined by following the procedure described in Example 246 except that 1 μmole/Kg of the drug was given intravenously.
# T1 sequence (P12821 30-1232 limits assumed): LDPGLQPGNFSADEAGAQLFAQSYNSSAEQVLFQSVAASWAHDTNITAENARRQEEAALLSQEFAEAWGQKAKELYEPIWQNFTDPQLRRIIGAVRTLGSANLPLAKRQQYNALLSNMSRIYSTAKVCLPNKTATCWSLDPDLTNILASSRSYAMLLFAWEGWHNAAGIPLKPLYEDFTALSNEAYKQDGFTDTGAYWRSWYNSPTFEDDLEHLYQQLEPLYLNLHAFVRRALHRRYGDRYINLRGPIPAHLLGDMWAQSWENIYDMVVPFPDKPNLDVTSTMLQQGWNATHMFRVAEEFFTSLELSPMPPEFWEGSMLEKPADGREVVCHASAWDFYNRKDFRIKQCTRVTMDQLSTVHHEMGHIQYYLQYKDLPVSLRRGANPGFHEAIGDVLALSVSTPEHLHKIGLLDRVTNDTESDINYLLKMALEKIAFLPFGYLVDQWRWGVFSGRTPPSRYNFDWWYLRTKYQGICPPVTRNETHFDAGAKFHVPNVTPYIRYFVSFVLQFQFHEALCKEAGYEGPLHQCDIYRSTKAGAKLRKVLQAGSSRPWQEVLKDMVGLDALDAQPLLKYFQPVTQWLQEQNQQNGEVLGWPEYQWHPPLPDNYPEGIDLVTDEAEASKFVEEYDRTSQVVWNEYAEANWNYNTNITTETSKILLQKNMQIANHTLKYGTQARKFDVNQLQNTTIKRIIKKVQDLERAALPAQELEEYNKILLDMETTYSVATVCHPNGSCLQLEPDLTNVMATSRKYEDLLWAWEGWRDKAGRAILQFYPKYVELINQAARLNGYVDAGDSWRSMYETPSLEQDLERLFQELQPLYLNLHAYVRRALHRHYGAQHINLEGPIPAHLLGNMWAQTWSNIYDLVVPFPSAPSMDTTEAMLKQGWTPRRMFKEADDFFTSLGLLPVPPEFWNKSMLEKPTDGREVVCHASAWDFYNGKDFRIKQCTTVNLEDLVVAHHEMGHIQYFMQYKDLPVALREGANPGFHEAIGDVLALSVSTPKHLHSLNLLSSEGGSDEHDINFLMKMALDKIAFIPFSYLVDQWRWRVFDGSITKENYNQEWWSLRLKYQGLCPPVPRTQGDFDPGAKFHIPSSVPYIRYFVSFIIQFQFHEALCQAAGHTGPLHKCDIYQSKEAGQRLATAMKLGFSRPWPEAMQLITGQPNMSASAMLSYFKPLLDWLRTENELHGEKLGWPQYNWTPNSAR
structure (smiles),measurement,setting,value
"CC(SC(=O)C(Cc1ccccc1)NC(=O)c1ccccc1)C(=O)N1CC=C[C@H]1C(=O)O (stereo partly drawn) [(B), N-(2-benzoylphenylalanylthiopropanoyl)-L-3,4-dehydroproline]",IC50,[1],0.003 µM
same,Blood pressure response to angiotensin I (% of control),[2]; 3 min,100%
same,Blood pressure response to angiotensin I (% of control),[2]; 9 min,81%
same,Blood pressure response to angiotensin I (% of control),[2]; 14 min,74%
same,Blood pressure response to angiotensin I (% of control),[2]; 24 min,74%
same,Blood pressure response to angiotensin I (% of control),[2]; 28 min,74%
same,Blood pressure response to angiotensin I (% of control),[2]; 34 min,63%
same,Blood pressure response to angiotensin I (% of control),[2]; 44 min,56%
same,Blood pressure response to angiotensin I (% of control),[2]; 54 min,44%
same,Blood pressure response to angiotensin I (% of control),[2]; 64 min,56%
same,Blood pressure response to angiotensin I (% of control),[2]; 85 min,37%
same,Blood pressure response to angiotensin I (% of control),[2]; 94 min,44%
same,Blood pressure response to angiotensin I (% of control),[2]; 104 min,74%
same,Blood pressure response to angiotensin I (% of control),[2]; 114 min,56%
same,Blood pressure response to angiotensin I (% of control),[2]; 146 min,100%
"CC(SC(=O)C(Cc1ccccc1)NC(=O)c1ccccc1)C(=O)N1CCC[C@H]1C(=O)O (stereo partly drawn) [Compound (II), 2-benzoylphenylalanylthiopropanoyl-L-proline]",IC50,[1],0.07 µM and 0.04 µM
same,resistance to alkaline hydrolysis,[3],surprisingly resistant to alkaline hydrolysis
same,Blood Pressure Response to 80 ng of Angiotensin I,"[2]; oral 12 mg/kg, 6 min, Rat 1",109 % of control
same,Blood Pressure Response to 80 ng of Angiotensin I,"[2]; oral 12 mg/kg, 12 min, Rat 1",80 % of control
same,Blood Pressure Response to 80 ng of Angiotensin I,"[2]; oral 12 mg/kg, 30 min, Rat 1",51 % of control
same,Blood Pressure Response to 80 ng of Angiotensin I,"[2]; oral 12 mg/kg, 47 min, Rat 1",71 % of control
same,Blood Pressure Response to 80 ng of Angiotensin I,"[2]; oral 12 mg/kg, 56 min, Rat 1",69 % of control
same,Blood Pressure Response to 80 ng of Angiotensin I,"[2]; oral 12 mg/kg, 76 min, Rat 1",63 % of control
same,Blood Pressure Response to 80 ng of Angiotensin I,"[2]; oral 12 mg/kg, 150 min, Rat 1",49 % of control
same,Blood Pressure Response to 80 ng of Angiotensin I,"[2]; oral 12 mg/kg, 158 min, Rat 1",57 % of control
same,Blood Pressure Response to 80 ng of Angiotensin I,"[2]; oral 20 mg/kg, 6 min, Rat 2",91 % of control
same,Blood Pressure Response to 80 ng of Angiotensin I,"[2]; oral 20 mg/kg, 12 min, Rat 2",70 % of control
same,Blood Pressure Response to 80 ng of Angiotensin I,"[2]; oral 20 mg/kg, 23 min, Rat 2",76 % of control
same,Blood Pressure Response to 80 ng of Angiotensin I,"[2]; oral 20 mg/kg, 30 min, Rat 2",76 % of control
same,Blood Pressure Response to 80 ng of Angiotensin I,"[2]; oral 20 mg/kg, 56 min, Rat 2",55 % of control
same,Blood Pressure Response to 80 ng of Angiotensin I,"[2]; oral 20 mg/kg, 76 min, Rat 2",40 % of control
same,Blood Pressure Response to 80 ng of Angiotensin I,"[2]; oral 20 mg/kg, 95 min, Rat 2",40 % of control
same,Blood Pressure Response to 80 ng of Angiotensin I,"[2]; oral 20 mg/kg, 142 min, Rat 2",76 % of control
same,Blood Pressure Response to 80 ng of Angiotensin I,"[2]; oral 20 mg/kg, 158 min, Rat 2",76 % of control
same,Blood Pressure Response to 80 ng of Angiotensin I,"[2]; oral 20 mg/kg, 166 min, Rat 2",76 % of control
same,Blood Pressure Response to 80 ng of Angiotensin I,"[2]; oral 20 mg/kg, 176 min, Rat 2",76 % of control
same,pressor effects of angiotensin II (specificity),[4],did not inhibit
C[C@H](CSC(=O)[C@H](Cc1ccccc1)NC(=O)[C@H](CCCCN)NC(=O)C1CCCC1)C(=O)N1CCC[C@H]1C(=O)O [N-alpha-[3-(N-alpha-cyclopentylcarbonyl-L-lysyl-L-phenylalanylthio)-2-D-methylpropanoyl]-L-proline],IC50,[1],0.015 µM
same,Blood Pressure Response to 400 ng/kg of Angiotensin I,[2]; 5 min,59 % of Control
same,Blood Pressure Response to 400 ng/kg of Angiotensin I,[2]; 10 min,44 % of Control
same,Blood Pressure Response to 400 ng/kg of Angiotensin I,[2]; 15 min,44 % of Control
same,Blood Pressure Response to 400 ng/kg of Angiotensin I,[2]; 31 min,44 % of Control
same,Blood Pressure Response to 400 ng/kg of Angiotensin I,[2]; 37 min,38 % of Control
same,Blood Pressure Response to 400 ng/kg of Angiotensin I,[2]; 45 min,44 % of Control
same,Blood Pressure Response to 400 ng/kg of Angiotensin I,[2]; 55 min,44 % of Control
same,Blood Pressure Response to 400 ng/kg of Angiotensin I,[2]; 81 min,36 % of Control
same,Blood Pressure Response to 400 ng/kg of Angiotensin I,[2]; 93 min,36 % of Control
same,Blood Pressure Response to 400 ng/kg of Angiotensin I,[2]; 104 min,38 % of Control
same,Blood Pressure Response to 400 ng/kg of Angiotensin I,[5]; 3 min,8 % of Control
same,Blood Pressure Response to 400 ng/kg of Angiotensin I,[5]; 9 min,15 % of Control
same,Blood Pressure Response to 400 ng/kg of Angiotensin I,[5]; 14 min,23 % of Control
same,Blood Pressure Response to 400 ng/kg of Angiotensin I,[5]; 19 min,23 % of Control
same,Blood Pressure Response to 400 ng/kg of Angiotensin I,[5]; 24 min,33 % of Control
same,Blood Pressure Response to 400 ng/kg of Angiotensin I,[5]; 37 min,41 % of Control
same,Blood Pressure Response to 400 ng/kg of Angiotensin I,[5]; 45 min,46 % of Control
same,Blood Pressure Response to 400 ng/kg of Angiotensin I,[5]; 54 min,46 % of Control
same,Blood Pressure Response to 400 ng/kg of Angiotensin I,[5]; 77 min,46 % of Control
same,Blood Pressure Response to 400 ng/kg of Angiotensin I,[5]; 87 min,51 % of Control
